Test results reported in ChEMBL document CHEMBL1800032, “Allosteric and ATP-competitive kinase inhibitors of mTOR for cancer treatment” (Bioorg Med Chem Lett, 2010).

Target: Serine/threonine-protein kinase mTOR (Homo sapiens, UniProt P42345)
Assay: Inhibition of recombinant mTOR assessed as inhibition of S6K T389 phosphorylation by DELFIA assay

IC50: 5 nM
SMILES: COC(=O)Nc1ccc(-c2nc(N3CCOCC3)c3cnn(C4CCN(C(=O)OC)CC4)c3n2)cc1
